The source of these data is patent US8785457B2 (Cellzome Limited, priority 2009, dated 2014).

For the first assay, the target named is T1, PI3Kalpha (PI3Ka) (Homo sapiens, UniProt P42336).
T1 construct: endogenous in cells; host or cells: cell lysate
T1 sequence (P42336 whole entry): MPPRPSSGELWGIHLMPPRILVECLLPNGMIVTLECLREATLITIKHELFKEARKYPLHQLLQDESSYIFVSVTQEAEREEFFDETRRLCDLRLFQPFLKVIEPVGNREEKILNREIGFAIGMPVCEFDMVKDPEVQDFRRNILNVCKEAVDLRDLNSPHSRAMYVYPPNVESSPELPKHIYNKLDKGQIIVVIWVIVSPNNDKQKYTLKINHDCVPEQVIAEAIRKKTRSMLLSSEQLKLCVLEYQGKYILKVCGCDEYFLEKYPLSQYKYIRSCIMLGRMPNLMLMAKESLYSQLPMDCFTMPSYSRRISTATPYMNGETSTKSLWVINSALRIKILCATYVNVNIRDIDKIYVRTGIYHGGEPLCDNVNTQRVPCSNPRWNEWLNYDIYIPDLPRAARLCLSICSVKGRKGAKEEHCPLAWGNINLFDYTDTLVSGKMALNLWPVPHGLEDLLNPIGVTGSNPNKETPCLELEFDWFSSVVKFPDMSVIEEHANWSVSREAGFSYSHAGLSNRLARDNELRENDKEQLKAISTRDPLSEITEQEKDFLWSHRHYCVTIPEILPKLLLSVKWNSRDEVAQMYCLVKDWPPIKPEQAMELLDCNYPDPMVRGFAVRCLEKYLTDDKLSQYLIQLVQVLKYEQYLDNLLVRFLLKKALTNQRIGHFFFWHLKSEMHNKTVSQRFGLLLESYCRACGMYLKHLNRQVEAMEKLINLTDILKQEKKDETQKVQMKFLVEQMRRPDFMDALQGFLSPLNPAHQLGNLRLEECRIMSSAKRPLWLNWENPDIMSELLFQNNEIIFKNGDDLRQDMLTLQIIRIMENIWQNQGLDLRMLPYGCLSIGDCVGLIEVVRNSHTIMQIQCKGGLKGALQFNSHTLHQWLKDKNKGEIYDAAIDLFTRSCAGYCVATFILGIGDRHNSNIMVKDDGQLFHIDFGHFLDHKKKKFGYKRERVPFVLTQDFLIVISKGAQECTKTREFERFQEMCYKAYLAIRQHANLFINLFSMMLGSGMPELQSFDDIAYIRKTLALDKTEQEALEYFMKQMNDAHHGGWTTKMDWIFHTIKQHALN
T1 sequence (P27986 whole entry partner): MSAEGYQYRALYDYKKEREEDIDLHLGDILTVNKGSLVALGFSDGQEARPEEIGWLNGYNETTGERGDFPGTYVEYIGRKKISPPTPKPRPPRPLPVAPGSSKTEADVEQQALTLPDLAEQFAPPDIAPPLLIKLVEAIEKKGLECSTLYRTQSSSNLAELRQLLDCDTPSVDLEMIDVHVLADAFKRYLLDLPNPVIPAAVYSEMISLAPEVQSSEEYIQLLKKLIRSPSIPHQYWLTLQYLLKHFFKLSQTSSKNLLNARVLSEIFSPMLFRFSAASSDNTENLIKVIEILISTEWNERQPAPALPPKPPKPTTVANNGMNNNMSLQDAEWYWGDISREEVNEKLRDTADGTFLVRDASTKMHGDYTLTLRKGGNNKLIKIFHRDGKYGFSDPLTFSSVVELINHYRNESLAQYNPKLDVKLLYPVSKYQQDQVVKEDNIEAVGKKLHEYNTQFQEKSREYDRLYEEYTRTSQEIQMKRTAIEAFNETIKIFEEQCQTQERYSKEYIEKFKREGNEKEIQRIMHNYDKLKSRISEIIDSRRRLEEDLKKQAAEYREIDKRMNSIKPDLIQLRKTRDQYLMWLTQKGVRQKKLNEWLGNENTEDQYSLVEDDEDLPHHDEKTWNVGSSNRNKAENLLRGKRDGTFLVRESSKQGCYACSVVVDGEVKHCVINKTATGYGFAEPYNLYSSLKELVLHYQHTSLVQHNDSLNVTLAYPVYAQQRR
As to the kind of experiment: kinobeads assay, PI3Kalpha. To be noted: kinobeads assay, Table 6. Format: binding. The method, boiled down: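 Read-out is multiplexed immunodetection of kinase eluted from phenylmorpholin-chromen ligand beads after their incubation in cell lysate with test compound at various concentrations. Reduced capture reflects competition, and per-kinase dose-response curves yield IC50.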
On to `CC(=O)N1CCc2c(nc(-c3ccc(NC(=O)NC4CC4)cc3)nc2N2CCOC[C@@H]2C)C1` [Example 62, (S)-1-(4-(7-acetyl-4-(3-methylmorpholino)-5,6,7,8-tetrahydropyrido[3,4-d]pyrimidin-2-yl)phenyl)-3-cyclopropylurea], for which the “Inhibition values (IC50) PI3Ka” value was “D (D >10 μM)”.

As to `CC(C)CN1Cc2nc(-c3ccc(NC(=O)NC4CC4)cc3)nc(N3CCOC[C@@H]3C)c2C1` [Example 65, (S)-1-cyclopropyl-3-(4-(6-isobutyl-4-(3-methylmorpholino)-6,7-dihydro-5H-pyrrolo[3,4-d]pyrimidin-2-yl)phenyl)urea], the “Inhibition values (IC50) PI3Ka” value was “D (D >10 μM)”.

For `CCNC(=O)Nc1ccc(-c2nc3c(c(N4CCOC[C@@H]4C)n2)CN(CC(C)(C)C)C3)cc1` [Example 67, (S)-1-ethyl-3-(4-(4-(3-methylmorpholino)-6-neopentyl-6,7-dihydro-5H-pyrrolo[3,4-d]pyrimidin-2-yl)phenyl)urea], the “Inhibition values (IC50) PI3Ka” value is recorded as “D (D >10 μM)”.

`CCNC(=O)Nc1ccc(-c2nc3c(c(N4CCOC[C@@H]4C)n2)CN(CC(F)(F)F)C3)cc1` [Example 68, (S)-1-ethyl-3-(4-(4-(3-methylmorpholino)-6-(2,2,2-trifluoroethyl)-6,7-dihydro-5H-pyrrolo[3,4-d]pyrimidin-2-yl)phenyl)urea]: the “Inhibition values (IC50) PI3Ka” value was “D (D >10 μM)”.

As for `CCNC(=O)Nc1ccc(-c2nc3c(c(N4CCOCC4)n2)CN(C(=O)OCC)C3)cc1` [Example 70, Ethyl 2-(4-(3-ethylureido)phenyl)-4-morpholino-5H-pyrrolo[3,4-d]pyrimidine-6(7H)-carboxylate], the “Inhibition values (IC50) PI3Ka” value is recorded as “D (D >10 μM)”.

Regarding `Cc1cc(NC(=O)Nc2ccc(-c3nc4c(c(N5CCOC[C@@H]5C)n3)CN(C)C4)cc2)no1` [Example 72, (S)-1-(4-(6-methyl-4-(3-methylmorpholino)-6,7-dihydro-5H-pyrrolo[3,4-d]pyrimidin-2-yl)phenyl)-3-(5-methylisoxazol-3-yl)urea], the “Inhibition values (IC50) PI3Ka” value is “D (D >10 μM)”.

`CCNC(=O)Nc1ccc(-c2nc3c(c(N4CCOC[C@@H]4C)n2)CN(C(C)C)C3)cc1` [Example 74, (S)-1-ethyl-3-(4-(6-isopropyl-4-(3-methylmorpholino)-6,7-dihydro-5H-pyrrolo[3,4-d]pyrimidin-2-yl)phenyl)urea]: the “Inhibition values (IC50) PI3Ka” value is recorded as “D (D >10 μM)”.

For `CCNC(=O)Nc1ccc(-c2nc3c(c(N4CCOC[C@@H]4C)n2)CCN(CC(C)C)C3)cc1.O=CO` [Example 76, (S)-1-ethyl-3-(4-(7-isobutyl-4-(3-methylmorpholino)-5,6,7,8-tetrahydropyrido[3,4-d]pyrimidin-2-yl)phenyl)urea formate], the “Inhibition values (IC50) PI3Ka” value is reported as “D (D >10 μM)”.

As to `CCNC(=O)Nc1ccc(-c2nc3c(c(N4CCOCC4)n2)CCN(C)C3)cc1` [Example 93, 1-ethyl-3-(4-(7-methyl-4-morpholino-5,6,7,8-tetrahydropyrido[3,4-d]pyrimidin-2-yl)phenyl)urea], the “Inhibition values (IC50) PI3Ka” value is “D (D >10 μM)”.

With `CCNC(=O)Nc1ccc(-c2nc3c(c(N4CCOCC4)n2)CCN(C(=O)OCC)C3)cc1` [Example 96, ethyl 2-(4-(3-ethylureido)phenyl)-4-morpholino-5,6-dihydropyrido[3,4-d]pyrimidine-7(8H)-carboxylate], the “Inhibition values (IC50) PI3Ka” value was “D (D >10 μM)”.

Turning to `CCNC(=O)Nc1ccc(-c2nc3c(c(N4CCOC[C@@H]4C)n2)CCN(C(=O)CO)C3)cc1` [Example 102, (S)-1-ethyl-3-(4-(7-(2-hydroxyacetyl)-4-(3-methylmorpholino)-5,6,7,8-tetrahydropyrido[3,4-d]pyrimidin-2-yl)phenyl)urea], the “Inhibition values (IC50) PI3Ka” value is “D (D >10 μM)”.

On to `CCOC(=O)N1Cc2nc(-c3ccc(NC(=O)NCCO)c(F)c3)nc(N3CCOC[C@@H]3C)c2C1` [Example 104, (S)-ethyl-2-(3-fluoro-4-(3-(2-hydroxyethyl)ureido)phenyl)-4-(3-methylmorpholino)-5H-pyrrolo[3,4-d]pyrimidine-6(7H)-carboxylate], for which the “Inhibition values (IC50) PI3Ka” value was “D (D >10 μM)”.

On to `CCOC(=O)N1Cc2nc(-c3ccc(NC(=O)NC4CC4)c(F)c3)nc(N3CCOC[C@@H]3C)c2C1` [Example 105, (S)-ethyl 2-(4-(3-cyclopropylureido)-3-fluorophenyl)-4-(3-methylmorpholino)-5H-pyrrolo[3,4-d]pyrimidine-6(7H)-carboxylate], for which the “Inhibition values (IC50) PI3Ka” value is “D (D >10 μM)”.

As to `CCNC(=O)Nc1ncc(-c2nc3c(c(N4CCOC[C@@H]4C)n2)CCN(C)C3)s1` [Example 106, (S)-1-ethyl-3-(5-(7-methyl-4-(3-methylmorpholino)-5,6,7,8-tetrahydropyrido[3,4-d]pyrimidin-2-yl)thiazol-2-yl)urea], the “Inhibition values (IC50) PI3Ka” value is reported as “D (D >10 μM)”.

As to `CCNC(=O)Nc1ccc(-c2nc3c(c(N4CCOC[C@@H]4C)n2)CN(C(=O)OCC)CC3)cc1` [Example 107, (S)-ethyl 2-(4-(3-ethylureido)phenyl)-4-(3-methylmorpholino)-7,8-dihydropyrido[4,3-d]pyrimidine-6(5H)-carboxylate], the “Inhibition values (IC50) PI3Ka” value was “D (D >10 μM)”.

Take `CCNC(=O)Nc1cc(F)c(-c2nc3c(c(N4CCOC[C@@H]4C)n2)CCN(C)C3)cc1F` [Example 108, (S)-1-(2,5-difluoro-4-(7-methyl-4-(3-methylmorpholino)-5,6,7,8-tetrahydropyrido[3,4-d]pyrimidin-2-yl)phenyl)-3-ethylurea]: the “Inhibition values (IC50) PI3Ka” value is listed as “D (D >10 μM)”.

With `CCOC(=O)N1Cc2nc(-c3ccc(NC(=O)NCCF)cc3)nc(N3CCOC[C@@H]3C)c2C1` [Example 120, (S)-ethyl 2-(4-(3-(2-fluoroethyl)ureido)phenyl)-4-(3-methylmorpholino)-5H-pyrrolo[3,4-d]pyrimidine-6(7H)-carboxylate], the “Inhibition values (IC50) PI3Ka” value is “D (D >10 μM)”.

As for `CCOC(=O)N1Cc2nc(-c3ccc(NC(=O)Nc4ccncc4)cc3)nc(N3CCOC[C@@H]3C)c2C1` [Example 121, (S)-ethyl 4-(3-methylmorpholino)-2-(4-(3-(pyridin-4-yl)ureido)phenyl)-5H-pyrrolo[3,4-d]pyrimidine-6(7H)-carboxylate], the “Inhibition values (IC50) PI3Ka” value is on record as “D (D >10 μM)”.

Turning to `CCNC(=O)Nc1ccc(-c2nc3c(c(N4CCOC[C@@H]4C)n2)CN(C2CCN(C(=O)OC)CC2)C3)cc1F` [Example 122, (S)-methyl 4-(2-(4-(3-ethylureido)-3-fluorophenyl)-4-(3-methylmorpholino)-5H-pyrrolo[3,4-d]pyrimidin-6(7H)-yl)piperidine-1-carboxylate], the “Inhibition values (IC50) PI3Ka” value was “D (D >10 μM)”.

`C[C@H]1COCCN1c1nc(-c2ccc(NC(=O)NC3CC3)cc2)nc2c1CN(C(=O)C1CCOCC1)C2` [Example 129, (S)-1-cyclopropyl-3-(4-(4-(3-methylmorpholino)-6-(tetrahydro-2H-pyran-4-carbonyl)-6,7-dihydro-5H-pyrrolo[3,4-d]pyrimidin-2-yl)phenyl)urea]: the “Inhibition values (IC50) PI3Ka” value is reported as “D (D >10 μM)”.

Staying with this assay, now noted: kinobeads assay, Table 6; read-out: Inhibition values (IC50) PI3Ka.
Broadly, the IC50 is the concentration needed to halve the response being measured. Take `CCNC(=O)Nc1ccc(-c2nc3c(c(N4CCOCC4)n2)CN(C)C3)cc1` [Example 69, 1-Ethyl-3-(4-(6-methyl-4-morpholino-6,7-dihydro-5H-pyrrolo[3,4-d]pyrimidin-2-yl)phenyl)urea]: the IC50 fell in the range of 1 to 10 µM.

As to `C[C@H]1COCCN1c1nc(-c2ccc(NC(N)=O)cc2)nc2c1CN(C)C2` [Example 71, (S)-1-(4-(6-methyl-4-(3-methylmorpholino)-6,7-dihydro-5H-pyrrolo[3,4-d]pyrimidin-2-yl)phenyl)urea], the IC50 lay in the range of 1 to 10 µM.

As for `C[C@H]1COCCN1c1nc(-c2ccc(NC(=O)NCCO)cc2)nc2c1CN(C)C2` [Example 73, (S)-1-(2-hydroxyethyl)-3-(4-(6-methyl-4-(3-methylmorpholino)-6,7-dihydro-5H-pyrrolo[3,4-d]pyrimidin-2-yl)phenyl)urea], the IC50 lay within 1 to 10 µM.

In the case of `C[C@H]1COCCN1c1nc(-c2ccc(NC(=O)Nc3ccn(C)n3)cc2)nc2c1CN(C)C2` [Example 84, (S)-1-(1-methyl-1H-pyrazol-3-yl)-3-(4-(6-methyl-4-(3-methylmorpholino)-6,7-dihydro-5H-pyrrolo[3,4-d]pyrimidin-2-yl)phenyl)urea], the IC50 lay in the range of 1 to 10 µM.

For `CCNC(=O)Nc1ccc(-c2nc3c(c(N4CCOCC4)n2)CCN(C(=O)NCC)C3)cc1` [Example 94, N-ethyl-2-(4-(3-ethylureido)phenyl)-4-morpholino-5,6-dihydropyrido[3,4-d]pyrimidine-7(8H)-carboxamide], the IC50 fell in the range of 1 to 10 µM.

For `CCNC(=O)Nc1ccc(-c2nc3c(c(N4CCOCC4)n2)CCN(C(C)=O)C3)cc1` [Example 97, 1-(4-(7-acetyl-4-morpholino-5,6,7,8-tetrahydropyrido[3,4-d]pyrimidin-2-yl)phenyl)-3-ethylurea], the IC50 fell in the range of 1 to 10 µM.

In the case of `CCNC(=O)Nc1ccc(-c2nc3c(c(N4CCOCC4)n2)CCN(C(=O)C(C)(C)C)C3)cc1` [Example 98, 1-ethyl-3-(4-(4-morpholino-7-pivaloyl-5,6,7,8-tetrahydropyrido[3,4-d]pyrimidin-2-yl)phenyl)urea], the IC50 lay in the range of 1 to 10 µM.

As for `CCNC(=O)Nc1ccc(-c2nc3c(c(N4CCOCC4)n2)CN(C(=O)C(C)(C)C)C3)cc1` [Example 100, 1-ethyl-3-(4-(4-morpholino-6-pivaloyl-6,7-dihydro-5H-pyrrolo[3,4-d]pyrimidin-2-yl)phenyl)urea], the IC50 was 1 to 10 µM.
